{"source": "the supplement of paper PMC10627819", "key": {"S. aureus DSM 20231 [1]": {"system": "S. aureus DSM 20231", "assay": "Bliss interaction score (quartile over a dose matrix) (fitness difference); higher = more antagonism (negative = synergy)", "method_in_brief": "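OD595 was read at entry into stationary phase and expressed relative to the robust mean of the no-drug wells on the same plate, capped at 1. The resulting ratio is the fitness value. The Bliss score, observed fitness minus product-based expected fitness with single-drug fitness inferred from combinations, is summarised by quartiles over technical, biological and donor/recipient replicates.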"}, "S. pneumoniae D39V": {"system": "S. pneumoniae D39V", "assay": "fitness (endpoint OD595 vs no drug) (fraction); higher = more growth", "method_in_brief": "(§1)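 Fitness was measured as bacterial growth in 384-well plates inoculated at OD595 0.01 (30 µl, or 55 µl for S. pneumoniae). Media were TSB, LB Lennox or CY, at 37 °C. OD595 was read every 30 min for 14 h and background-subtracted against the first reading. Fitness is OD595 at the transition into stationary phase divided by the robust mean of no-drug control wells, capped at 1.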"}, "S. aureus Newman": {"system": "S. aureus Newman", "assay": "fitness (endpoint OD595 vs no drug) (fraction); higher = more growth", "method_in_brief": "as §1"}, "S. aureus DSM 20231 [2]": {"system": "S. aureus DSM 20231", "assay": "fitness (endpoint OD595 vs no drug) (fraction); higher = more growth", "method_in_brief": "as §1"}, "[3]": {"conditions": "first compound 0.5 µg/mL, partner 0.0156 µg/mL"}, "[4]": {"conditions": "first compound 0.5 µg/mL, partner 0.0312 µg/mL"}, "[5]": {"conditions": "first compound 0.5 µg/mL, partner 0.0625 µg/mL"}}}
{"smiles": "CC1(C)S[C@@H]2[C@H](NC(=O)[C@H](N)c3ccc(O)cc3)C(=O)N2[C@H]1C(=O)O", "note": "[Amoxicillin] + CC(=O)Oc1cccc2c1C(=O)c1c(OC(C)=O)cc(C(=O)O)cc1C2=O [Diacerein]", "values": [{"measurement": "Bliss interaction score", "setting": "S. aureus DSM 20231 [1]", "value": -0.192}]}
{"smiles": "CC1(C)S[C@@H]2[C@H](NC(=O)[C@H](N)c3ccc(O)cc3)C(=O)N2[C@H]1C(=O)O", "note": "[Amoxicillin] + CC/C(=C(\\c1ccccc1)c1ccc(OCCN(C)C)cc1)c1ccccc1 [Tamoxifene]", "values": [{"measurement": "Bliss interaction score", "setting": "S. aureus DSM 20231 [1]", "value": -0.148}]}
{"smiles": "CC1(C)S[C@@H]2[C@H](NC(=O)[C@H](N)c3ccc(O)cc3)C(=O)N2[C@H]1C(=O)O", "note": "[Amoxicillin] + CCN(CC)CCOc1ccc(C(=C(Cl)c2ccccc2)c2ccccc2)cc1 [Clomiphene]", "values": [{"measurement": "Bliss interaction score", "setting": "S. aureus DSM 20231 [1]", "value": -0.255}]}
{"smiles": "CC1(C)S[C@@H]2[C@H](NC(=O)[C@H](N)c3ccc(O)cc3)C(=O)N2[C@H]1C(=O)O", "note": "[Amoxicillin] + Cc1ccc(-c2cc(C(F)(F)F)nn2-c2ccc(S(N)(=O)=O)cc2)cc1 [Celecoxib]", "values": [{"measurement": "Bliss interaction score", "setting": "S. aureus DSM 20231 [1]", "value": 0.185}]}
{"smiles": "CC1(C)S[C@@H]2[C@H](NC(=O)[C@H](N)c3ccc(O)cc3)C(=O)N2[C@H]1C(=O)O", "note": "[Amoxicillin] + O=C(O)c1cc(-c2ccc(F)cc2F)ccc1O [Diflunisal]", "values": [{"measurement": "Bliss interaction score", "setting": "S. aureus DSM 20231 [1]", "value": 0.204}]}
{"smiles": "Cc1ccc(-c2cc(C(F)(F)F)nn2-c2ccc(S(N)(=O)=O)cc2)cc1", "note": "[Celecoxib] + CC[C@H]1OC(=O)[C@H](C)C(=O)[C@H](C)[C@@H](O[C@@H]2O[C@H](C)C[C@H](N(C)C)[C@H]2O)[C@](C)(OC)C[C@@H](C)C(=O)[C@H](C)[C@H]2N(CCCCn3cnc(-c4cccnc4)c3)C(=O)O[C@]12C [Telithromycin]", "values": [{"measurement": "Bliss interaction score", "setting": "S. aureus DSM 20231 [1]", "value": -0.162}]}
{"smiles": "Cc1ccc(-c2cc(C(F)(F)F)nn2-c2ccc(S(N)(=O)=O)cc2)cc1", "note": "[Celecoxib] + CN(C)C(=O)C(CCN1CCC(O)(c2ccc(Cl)cc2)CC1)(c1ccccc1)c1ccccc1 [Loperamide]", "values": [{"measurement": "Bliss interaction score", "setting": "S. aureus DSM 20231 [1]", "value": -0.452}]}
{"smiles": "CCCCCCCCCC(=O)N[C@@H](Cc1c[nH]c2ccccc12)C(=O)N[C@H](CC(N)=O)C(=O)N[C@@H](CC(=O)O)C(=O)N[C@@H]1C(=O)NCC(=O)N[C@@H](CCCN)C(=O)N[C@@H](CC(=O)O)C(=O)N[C@H](C)C(=O)N[C@@H](CC(=O)O)C(=O)NCC(=O)N[C@H](CO)C(=O)N[C@@H]([C@H](C)CC(=O)O)C(=O)N[C@@H](CC(=O)c2ccccc2N)C(=O)O[C@@H]1C", "note": "[Daptomycin] + CO[C@@]12[C@H](COC(N)=O)C3=C(C(=O)C(C)=C(N)C3=O)N1C[C@@H]1N[C@@H]12 [Mitomycin C]", "values": [{"measurement": "fitness", "setting": "S. pneumoniae D39V; first compound 1 µg/mL, partner 0.001075 µg/mL", "value": 0.897}, {"measurement": "fitness", "setting": "S. pneumoniae D39V; first compound 1 µg/mL, partner 0.002 µg/mL", "value": 0.771}, {"measurement": "fitness", "setting": "S. pneumoniae D39V; first compound 1 µg/mL, partner 0.00215 µg/mL", "value": 0.849}, {"measurement": "fitness", "setting": "S. pneumoniae D39V; first compound 1 µg/mL, partner 0.004 µg/mL", "value": 0.617}, {"measurement": "fitness", "setting": "S. pneumoniae D39V; first compound 1 µg/mL, partner 0.0043 µg/mL", "value": 0.719}, {"measurement": "fitness", "setting": "S. pneumoniae D39V; first compound 1 µg/mL, partner 0.008 µg/mL", "value": 0.285}, {"measurement": "fitness", "setting": "S. pneumoniae D39V; first compound 2 µg/mL, partner 0.001075 µg/mL", "value": 0.905}, {"measurement": "fitness", "setting": "S. pneumoniae D39V; first compound 2 µg/mL, partner 0.002 µg/mL", "value": 0.776}, {"measurement": "fitness", "setting": "S. pneumoniae D39V; first compound 2 µg/mL, partner 0.00215 µg/mL", "value": 0.841}, {"measurement": "fitness", "setting": "S. pneumoniae D39V; first compound 2 µg/mL, partner 0.004 µg/mL", "value": 0.558}, {"measurement": "fitness", "setting": "S. pneumoniae D39V; first compound 2 µg/mL, partner 0.0043 µg/mL", "value": 0.723}, {"measurement": "fitness", "setting": "S. pneumoniae D39V; first compound 2 µg/mL, partner 0.008 µg/mL", "value": 0.307}, {"measurement": "fitness", "setting": "S. pneumoniae D39V; first compound 4 µg/mL, partner 0.001075 µg/mL", "value": 0.94}, {"measurement": "fitness", "setting": "S. pneumoniae D39V; first compound 4 µg/mL, partner 0.002 µg/mL", "value": 0.739}, {"measurement": "fitness", "setting": "S. pneumoniae D39V; first compound 4 µg/mL, partner 0.00215 µg/mL", "value": 0.842}, {"measurement": "fitness", "setting": "S. pneumoniae D39V; first compound 4 µg/mL, partner 0.004 µg/mL", "value": 0.504}, {"measurement": "fitness", "setting": "S. pneumoniae D39V; first compound 4 µg/mL, partner 0.0043 µg/mL", "value": 0.723}, {"measurement": "fitness", "setting": "S. pneumoniae D39V; first compound 4 µg/mL, partner 0.008 µg/mL", "value": 0.242}, {"measurement": "fitness", "setting": "S. aureus Newman; first compound 0.125 µg/mL, partner 0.0156 µg/mL", "value": 0.775}, {"measurement": "fitness", "setting": "S. aureus Newman; first compound 0.125 µg/mL, partner 0.0312 µg/mL", "value": 0.702}, {"measurement": "fitness", "setting": "S. aureus Newman; first compound 0.125 µg/mL, partner 0.0625 µg/mL", "value": 0.57}, {"measurement": "fitness", "setting": "S. aureus Newman; first compound 0.25 µg/mL, partner 0.0156 µg/mL", "value": 0.778}, {"measurement": "fitness", "setting": "S. aureus Newman; first compound 0.25 µg/mL, partner 0.0312 µg/mL", "value": 0.692}, {"measurement": "fitness", "setting": "S. aureus Newman; first compound 0.25 µg/mL, partner 0.0625 µg/mL", "value": 0.54}, {"measurement": "fitness", "setting": "S. aureus Newman; [3]", "value": 0.773}, {"measurement": "fitness", "setting": "S. aureus Newman; [4]", "value": 0.688}, {"measurement": "fitness", "setting": "S. aureus Newman; [5]", "value": 0.545}, {"measurement": "fitness", "setting": "S. aureus DSM 20231 [2]; [3]", "value": 0.773}, {"measurement": "fitness", "setting": "S. aureus DSM 20231 [2]; [4]", "value": 0.791}, {"measurement": "fitness", "setting": "S. aureus DSM 20231 [2]; [5]", "value": 0.648}, {"measurement": "fitness", "setting": "S. aureus DSM 20231 [2]; first compound 1 µg/mL, partner 0.0156 µg/mL", "value": 0.809}, {"measurement": "fitness", "setting": "S. aureus DSM 20231 [2]; first compound 1 µg/mL, partner 0.0312 µg/mL", "value": 0.778}, {"measurement": "fitness", "setting": "S. aureus DSM 20231 [2]; first compound 1 µg/mL, partner 0.0625 µg/mL", "value": 0.6}, {"measurement": "fitness", "setting": "S. aureus DSM 20231 [2]; first compound 2 µg/mL, partner 0.0156 µg/mL", "value": 0.769}, {"measurement": "fitness", "setting": "S. aureus DSM 20231 [2]; first compound 2 µg/mL, partner 0.0312 µg/mL", "value": 0.744}, {"measurement": "fitness", "setting": "S. aureus DSM 20231 [2]; first compound 2 µg/mL, partner 0.0625 µg/mL", "value": 0.595}]}
